Test results as given in patent US20120029187A1, “HALOALKYLSULFONANILIDE DERIVATIVE” (Nissan Chemical Industries, Ltd., priority 2009, published 2012).

Legend:
Type in all cases: in vivo
ducksalad [1] = test: Test Example 1: herbicidal effects in preemergence treatment under submerged conditions; settings: dose 2.52 g/a
Outline: (§1)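 Alluvial soil was flooded to 4 cm, sown with barnyardgrass, bulrush and ducksalad, and planted with 2.5-leaf rice seedlings. On the seeding day, water-diluted emulsifiable concentrates were applied to the water surface at set doses (g/a). After three weeks in a 25 to 30° C. greenhouse, mortality was scored 0–5.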

bulrush [2] = test: as above; settings: dose 2.52 g/a
Outline: as §1

barnyardgrass [3] = test: as above; settings: dose 2.52 g/a
Outline: as §1

ducksalad [4] = test: Test Example 2: herbicidal effects during the vegetation period under submerged conditions; settings: treatment during the vegetation period under submerged conditions; dose 2.52 g/a
Outline: (§2)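 Barnyardgrass, bulrush and ducksalad were co-sown in alluvial soil flooded to 4 cm and grown in a greenhouse at 25 to 30° C. At the 1- or 2-leaf stage, water-diluted emulsifiable concentrates went onto the water surface at set doses (g/a). Herbicidal effect was scored three weeks later on a graded scale.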

bulrush [5] = test: as above; settings: treatment during the vegetation period under submerged conditions; dose 2.52 g/a
Outline: as §2

barnyardgrass [6] = test: as above; settings: treatment during the vegetation period under submerged conditions; dose 2.52 g/a
Outline: as §2

common ragweed [7] = test: Test Example 4: herbicidal effect in foliage treatment; settings: dose 3.2 g/a, three weeks after application
Outline: (§3)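 14-day greenhouse-grown plants (25–30° C) sprayed on foliage with diluted EC; dose as g/a; effect graded after 3 weeks.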

common lambsquater [8] = test: as above; settings: dose 3.2 g/a, three weeks after application
Outline: as §3

giant foxtail [9] = test: as above; settings: dose 3.2 g/a, three weeks after application
Outline: as §3

redroot pigweed [10] = test: as above; settings: dose 3.2 g/a, three weeks after application
Outline: as §3

velvetleaf [11] = test: as above; settings: dose 3.2 g/a, three weeks after application
Outline: as §3

Italian ryegrass [12] = test: as above; settings: dose 3.2 g/a, three weeks after application
Outline: as §3

water foxtail [13] = test: as above; settings: dose 3.2 g/a, three weeks after application
Outline: as §3

large crabgrass [14] = test: as above; settings: dose 3.2 g/a, three weeks after application
Outline: as §3

common chickweed [15] = test: as above; settings: dose 3.2 g/a, three weeks after application
Outline: as §3

posumbu knotweed [16] = test: as above; settings: dose 3.2 g/a, three weeks after application
Outline: as §3

barnyardgrass [17] = test: as above; settings: dose 3.2 g/a, three weeks after application
Outline: as §3

common ragweed [18] = test: Test Example 3: herbicidal effects in soil treatment; settings: dose 3.2 g/a
Outline: (§4)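 Seeds were sown in sterilized diluvial soil and covered with about 1.5 cm of soil. Compounds, formulated as emulsifiable concentrates and diluted with water, were sprayed evenly over the soil surface at set doses in g/a. Herbicidal effect was scored on a rating scale three weeks later.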

common lambsquater [19] = test: as above; settings: dose 3.2 g/a
Outline: as §4

giant foxtail [20] = test: as above; settings: dose 3.2 g/a
Outline: as §4

redroot pigweed [21] = test: as above; settings: dose 3.2 g/a
Outline: as §4

velvetleaf [22] = test: as above; settings: dose 3.2 g/a
Outline: as §4

Italian ryegrass [23] = test: as above; settings: dose 3.2 g/a
Outline: as §4

water foxtail [24] = test: as above; settings: dose 3.2 g/a
Outline: as §4

large crabgrass [25] = test: as above; settings: dose 3.2 g/a
Outline: as §4

beadstraw = test: as above; settings: dose 3.2 g/a
Outline: as §4

common chickweed [26] = test: as above; settings: dose 3.2 g/a
Outline: as §4

posumbu knotweed [27] = test: as above; settings: dose 3.2 g/a
Outline: as §4

barnyardgrass [28] = test: as above; settings: dose 3.2 g/a
Outline: as §4

transplanted rice = test: Test Example 1: preemergence treatment under submerged conditions, effect on crop; settings: dose 2.52 g/a
Outline: as §1

Compound: CC1(C2CC2)CC(=O)N(Cc2ccccc2NS(=O)(=O)C(F)(F)F)CO1 (stereo not drawn) [II-44]
- C: ducksalad, herbicidal effect (evaluation scale 0-5) (ducksalad [1]): 5 (mortality of 90% or above (nearly complete death))
- B: bulrush, herbicidal effect (evaluation scale 0-5) (bulrush [2]): 5 (mortality of 90% or above (nearly complete death))
- A: barnyardgrass, herbicidal effect (evaluation scale 0-5) (barnyardgrass [3]): 5 (mortality of 90% or above (nearly complete death))
- C: ducksalad, herbicidal effect (evaluation scale 0-5) (ducksalad [4]): 5 (mortality of 90% or above (nearly complete death))
- B: bulrush, herbicidal effect (evaluation scale 0-5) (bulrush [5]): 5 (mortality of 90% or above (nearly complete death))
- A: barnyardgrass, herbicidal effect (evaluation scale 0-5) (barnyardgrass [6]): 5 (mortality of 90% or above (nearly complete death))
- J: common ragweed, herbicidal effect (common ragweed [7]): 2 (mortality of at least 20% and less than 40%)
- L: common lambsquater, herbicidal effect (common lambsquater [8]): 1 (mortality of at least 5% and less than 20%)
- E: giant foxtail, herbicidal effect (giant foxtail [9]): 3 (mortality of at least 40% and less than 70%)
- K: redroot pigweed, herbicidal effect (redroot pigweed [10]): 0 (mortality of less than 5% (almost ineffective))
- I: velvetleaf, herbicidal effect (velvetleaf [11]): 3 (mortality of at least 40% and less than 70%)
- H: Italian ryegrass, herbicidal effect (Italian ryegrass [12]): 4 (mortality of at least 70% and less than 90%)
- G: water foxtail, herbicidal effect (water foxtail [13]): 4 (mortality of at least 70% and less than 90%)
- D: large crabgrass, herbicidal effect (large crabgrass [14]): 2 (mortality of at least 20% and less than 40%)
- N: common chickweed, herbicidal effect (common chickweed [15]): 4 (mortality of at least 70% and less than 90%)
- M: posumbu knotweed, herbicidal effect (posumbu knotweed [16]): 1 (mortality of at least 5% and less than 20%)
- A: barnyardgrass, herbicidal effect (barnyardgrass [17]): 4 (mortality of at least 70% and less than 90%)
- J: common ragweed, herbicidal effect (evaluation scale 0-5) (common ragweed [18]): 3 (mortality of at least 40% and less than 70%)
- L: common lambsquater, herbicidal effect (evaluation scale 0-5) (common lambsquater [19]): 0 (mortality of less than 5% (almost ineffective))
- E: giant foxtail, herbicidal effect (evaluation scale 0-5) (giant foxtail [20]): 4 (mortality of at least 70% and less than 90%)
- K: redroot pigweed, herbicidal effect (evaluation scale 0-5) (redroot pigweed [21]): 0 (mortality of less than 5% (almost ineffective))
- I: velvetleaf, herbicidal effect (evaluation scale 0-5) (velvetleaf [22]): 3 (mortality of at least 40% and less than 70%)
- H: Italian ryegrass, herbicidal effect (evaluation scale 0-5) (Italian ryegrass [23]): 5 (mortality of 90% or above (nearly complete death))
- G: water foxtail, herbicidal effect (evaluation scale 0-5) (water foxtail [24]): 5 (mortality of 90% or above (nearly complete death))
- D: large crabgrass, herbicidal effect (evaluation scale 0-5) (large crabgrass [25]): 4 (mortality of at least 70% and less than 90%)
- O: beadstraw, herbicidal effect (evaluation scale 0-5) (beadstraw): 0 (mortality of less than 5% (almost ineffective))
- N: common chickweed, herbicidal effect (evaluation scale 0-5) (common chickweed [26]): 2 (mortality of at least 20% and less than 40%)
- M: posumbu knotweed, herbicidal effect (evaluation scale 0-5) (posumbu knotweed [27]): 3 (mortality of at least 40% and less than 70%)
- A: barnyardgrass, herbicidal effect (evaluation scale 0-5) (barnyardgrass [28]): 5 (mortality of 90% or above (nearly complete death))
- a: transplanted rice, effect on crop (evaluation scale 0-5) (transplanted rice): 3 (mortality of at least 40% and less than 70%)

Compound: O=C1CC2(CCCC2)OCN1Cc1ccccc1NS(=O)(=O)C(F)(F)F [II-64]
- C: ducksalad, herbicidal effect (evaluation scale 0-5) (ducksalad [1]): 5 (mortality of 90% or above (nearly complete death))
- B: bulrush, herbicidal effect (evaluation scale 0-5) (bulrush [2]): 5 (mortality of 90% or above (nearly complete death))
- A: barnyardgrass, herbicidal effect (evaluation scale 0-5) (barnyardgrass [3]): 5 (mortality of 90% or above (nearly complete death))
- C: ducksalad, herbicidal effect (evaluation scale 0-5) (ducksalad [4]): 5 (mortality of 90% or above (nearly complete death))
- B: bulrush, herbicidal effect (evaluation scale 0-5) (bulrush [5]): 5 (mortality of 90% or above (nearly complete death))
- A: barnyardgrass, herbicidal effect (evaluation scale 0-5) (barnyardgrass [6]): 5 (mortality of 90% or above (nearly complete death))
- J: common ragweed, herbicidal effect (common ragweed [7]): 3 (mortality of at least 40% and less than 70%)
- L: common lambsquater, herbicidal effect (common lambsquater [8]): 2 (mortality of at least 20% and less than 40%)
- E: giant foxtail, herbicidal effect (giant foxtail [9]): 4 (mortality of at least 70% and less than 90%)
- K: redroot pigweed, herbicidal effect (redroot pigweed [10]): 0 (mortality of less than 5% (almost ineffective))
- I: velvetleaf, herbicidal effect (velvetleaf [11]): 1 (mortality of at least 5% and less than 20%)
- H: Italian ryegrass, herbicidal effect (Italian ryegrass [12]): 3 (mortality of at least 40% and less than 70%)
- G: water foxtail, herbicidal effect (water foxtail [13]): 5 (mortality of 90% or above (nearly complete death))
- D: large crabgrass, herbicidal effect (large crabgrass [14]): 4 (mortality of at least 70% and less than 90%)
- N: common chickweed, herbicidal effect (common chickweed [15]): 4 (mortality of at least 70% and less than 90%)
- M: posumbu knotweed, herbicidal effect (posumbu knotweed [16]): 3 (mortality of at least 40% and less than 70%)
- A: barnyardgrass, herbicidal effect (barnyardgrass [17]): 4 (mortality of at least 70% and less than 90%)
- J: common ragweed, herbicidal effect (evaluation scale 0-5) (common ragweed [18]): 4 (mortality of at least 70% and less than 90%)
- L: common lambsquater, herbicidal effect (evaluation scale 0-5) (common lambsquater [19]): 5 (mortality of 90% or above (nearly complete death))
- E: giant foxtail, herbicidal effect (evaluation scale 0-5) (giant foxtail [20]): 5 (mortality of 90% or above (nearly complete death))
- K: redroot pigweed, herbicidal effect (evaluation scale 0-5) (redroot pigweed [21]): 4 (mortality of at least 70% and less than 90%)
- I: velvetleaf, herbicidal effect (evaluation scale 0-5) (velvetleaf [22]): 3 (mortality of at least 40% and less than 70%)
- H: Italian ryegrass, herbicidal effect (evaluation scale 0-5) (Italian ryegrass [23]): 5 (mortality of 90% or above (nearly complete death))
- G: water foxtail, herbicidal effect (evaluation scale 0-5) (water foxtail [24]): 5 (mortality of 90% or above (nearly complete death))
- D: large crabgrass, herbicidal effect (evaluation scale 0-5) (large crabgrass [25]): 5 (mortality of 90% or above (nearly complete death))
- O: beadstraw, herbicidal effect (evaluation scale 0-5) (beadstraw): 4 (mortality of at least 70% and less than 90%)
- N: common chickweed, herbicidal effect (evaluation scale 0-5) (common chickweed [26]): 4 (mortality of at least 70% and less than 90%)
- M: posumbu knotweed, herbicidal effect (evaluation scale 0-5) (posumbu knotweed [27]): 5 (mortality of 90% or above (nearly complete death))
- A: barnyardgrass, herbicidal effect (evaluation scale 0-5) (barnyardgrass [28]): 5 (mortality of 90% or above (nearly complete death))
- a: transplanted rice, effect on crop (evaluation scale 0-5) (transplanted rice): 0 (mortality of less than 5% (almost ineffective))
